The subject of test [1] is Cebus apella. Description: Drug efficacy evaluation test for Cebus apella (uric acid excretion rate). In kind it is in vivo. To be noted: 3 mg/kg to 30 mg/kg in 0.5% methylcellulose, administered from the nasal cavity to the stomach, samples up to 24 hours. The procedure:
Drug Efficacy Evaluation Test for Cebus Apella 2-(5-chloropyridin-3-yl)-1-(2,5-dichlorobenzyl)-4-methyl-1H-imidazole-5-carboxylic acid (3 mg/kg to 30 mg/kg) dispersed in a 0.5% methylcellulose solution was administered to Cebus apella from the nasal cavity to the stomach using a disposable catheter and a syringe barrel. Blood samples were taken before administration and 30 minutes, 1 hour, 2 hours, 4 hours, 8 hours, 12 hours, and 24 hours after administration; and urine samples were collected for the time intervals of immediately after to 4 hours after administration, from 4 hours to 8 hours after administration, from 8 hours to 16 hours after administration, and from 16 hours to 24 hours after administration. Concentrations of uric acid and creatinine in the blood and urine samples collected were measured by an automatic analyzer (JEOL Ltd.). Uric acid and […] were measured using L-type Wako UA•F (Wako Pure Chemicals Industries, Ltd.) and L-type Creatine F (Wako Pure Chemicals Industries, Ltd.), respectively. Uric acid clearance was calculated from the uric acid concentrations in blood and urine and, similarly, creatinine clearance was calculated from the creatinine concentrations.

Test [2] concerns the target T1, human URAT1 (Homo sapiens, UniProt Q96S37).
T1 construct: Full-length cDNA of human URAT1 (hURAT1)
T1 sequence (Q96S37 1-553): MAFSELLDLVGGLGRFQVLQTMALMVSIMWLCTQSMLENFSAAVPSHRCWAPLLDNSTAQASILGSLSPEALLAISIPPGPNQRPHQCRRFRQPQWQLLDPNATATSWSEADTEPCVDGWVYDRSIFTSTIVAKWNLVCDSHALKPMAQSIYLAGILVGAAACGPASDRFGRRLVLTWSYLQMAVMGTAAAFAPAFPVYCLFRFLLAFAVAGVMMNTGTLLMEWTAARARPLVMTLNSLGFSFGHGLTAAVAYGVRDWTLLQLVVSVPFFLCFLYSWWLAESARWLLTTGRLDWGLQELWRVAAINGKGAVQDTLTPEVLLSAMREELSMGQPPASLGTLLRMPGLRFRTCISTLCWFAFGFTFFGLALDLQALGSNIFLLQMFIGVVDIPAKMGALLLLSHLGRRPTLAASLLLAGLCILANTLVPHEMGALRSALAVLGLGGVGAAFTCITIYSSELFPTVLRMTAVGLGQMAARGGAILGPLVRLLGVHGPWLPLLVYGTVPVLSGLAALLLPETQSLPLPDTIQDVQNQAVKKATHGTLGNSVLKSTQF
In words: Test for inhibition of uric acid transport using human URAT1-expressing cells. It counts as cell-based. As to conditions: HEK 293 cells expressing human URAT1; 14C-labeled uric acid 25 μM; uptake 37° C. for 5 min; read-out: IC50 (concentration of the compound at which the uric acid transport rate is inhibited by 50%). The protocol:
Test for Inhibition of Uric Acid Transport Using Human URAT1-Expressing Cells
2-(5-chloropyridin-3-yl)-1-(2,5-dichlorobenzyl)-4-methyl-1H-imidazole-5-carboxylic acid was dissolved in DMSO (produced by Sigma) to a concentration of 20 mM and the concentration was subsequently adjusted to a value desired for use. Full-length cDNA of human URAT1 (hURAT1) (produced by OriGene Technologies, Inc., NCBI Reference Sequence: NM 144585) was subcloned into an expression vector, pCMV6-Kan/Neo (produced by OriGene Technologies, Inc.), and hURAT1 gene was transfected into human embryonic kidney-derived cells (HEK 293 cells) by liposome method using Lipofectamine 2000 (produced by Invitrogen Corporation), whereupon HEK 293 cells expressing human URAT1 gene were selected on the basis of Geneticin resistance. […]
After the medium was removed by aspiration from each well, the medium was replaced with a solution obtained by substituting NaCl in Hank's Balanced Salt Solution (HBSS) with Na gluconate (hereinafter, HBSS/Na-gluconate) and the cells were preincubated at 37° C. for about 10 minutes. […] The cell sample and a liquid scintillation liquid, ULTIMA GOLD (produced by PerkinElmer, Inc.) were mixed and the radioactivity was measured by a liquid scintillation counter (Beckman Coulter, Inc.). […]

For the compound `Cc1nc(-c2cncc(Cl)c2)n(Cc2cc(Cl)ccc2Cl)c1C(=O)O` [2-(5-chloropyridin-3-yl)-1-(2,5-dichlorobenzyl)-4-methyl-1H-imidazole-5-carboxylic acid], the “activity to promote uric acid excretion (uric acid excretion rate)” value in test [1] is “excellent activity to promote uric acid excretion”. The IC50 in test [2] is no more than 200 nM.
